The values that follow come from article PMC12454603 (Archives of Toxicology, 2025).

In general, Km refers to the concentration of substrate that gives half-maximal velocity. One may read the IC50 as the point on the concentration scale where inhibition reaches its midpoint.

Where “and” joins values, the source holds several entries; their conditions need not be identical. Identical values can stand only once.

The nature of series [1]: Sulfation of 3-OH-8-MBaP in incubations with rat liver S9. The format is in vitro ADME. The settings on record: rat, rat liver S9, pH 7.4, rat liver S9, PAPS. The procedure: (§1) The conjugation of 3-OH-8-MBaP by sulfation was studied in incubations with rat liver S9 in vitro. The incubation time and S9 protein concentration were optimized to ascertain linearity of the sulfation reaction with respect to time and amount of protein. The 200 µL incubation mixture consisted of (final concentrations) […] Tris buffer (pH 7.4), 0.1 mg/ml rat liver S9, 0.2 mM PAPS and 0–100 µM 3-OH-8-MBaP. No metabolites were detected in control incubations without either rat liver S9 or co-factor PAPS. After 1-min pre-incubation of the incubation mixture without substrate, the reaction was initiated by adding substrate from a 100 times concentrated stock solution in DMSO (final concentration 1% DMSO (v/v)). The incubation mixture was incubated at 37 °C for 70 min after which 100 µL ice-cold acetonitrile was added to the incubation mixture to terminate the reaction. The incubation mixture was subsequently centrifuged at 3717g at 4 °C for 5 min. The supernatant was collected for subsequent UPLC analysis.
(§2) An Acquity UPLC system with a photodiode array (PDA) detector was used to quantify the metabolites formed in the glucuronidation and sulfation incubations. The supernatants of the incubation samples were injected onto an Acquity UPLC BEH® C18 column ([…], 1.7 µm, Waters, Milford, MA). The total running time per sample was 22 min with a flow rate of 0.6 ml/min. The temperature of column and auto sampler was 40 °C and 10 °C, respectively. The injection volume was 3.5 µL and the detection wavelength ranged from 190 to 400 nm. Two eluents were used including A (nanopure with 0.1% (v/v) TFA) and B (acetonitrile with 0.1% (v/v) TFA). The gradient elution started from 90% A and 10% B applied from 0.0 min to 0.5 min, which was changed to 10% A and 90% B from 0.5 to 15.5 min and then kept at 10% A and 90% B from 15.5 min to 18.5 min, and changed back to 90% A and 10% B from 18.5 to 22.0 min. Metabolites were quantified as previously described in our study on microsomal metabolism of BaP and several of its methyl substituted analogs (Wang et al [2022]).
(§3) The concentration of the glucuronidated and sulfated metabolites was further used to calculate the velocity of the enzymatic reaction expressed in nmol/min/mg S9 protein. The curve reflecting the substrate (3-OH-8-MBaP) concentration-dependent velocity of the metabolite formation was fitted by the Michaelis–Menten equation using GraphPad Prism 5 (California, USA). The kinetic constants derived included the Km (µM) and Vmax (nmol/min/mg S9 protein).
(§4) 3-OH-8-MBaP was subsequently modeled to be conjugated by glucuronidation and sulfation in the liver. The kinetic constants for these conjugation reactions were determined in incubation experiments described in Sect. […] The scaling factors from rat liver microsomes and rat liver S9 to the whole liver were 45 mg microsomal protein/g liver and 125 mg S9 protein/g liver, respectively (Houston and Galetin [2008]).

The test system of series [2] is rat liver S9. Described as above. The format is in vitro ADME. The procedure:
as §1, §2, §3, §4

The nature of series [3]: Glucuronidation of 3-OH-8-MBaP in incubations with rat liver S9. Format: in vitro ADME. The settings on record: rat, pooled rat liver S9, pH 7.4, rat liver S9, UDPGA. The procedure: (§5) The conjugation of 3-OH-8-MBaP with glucuronic acid was studied in incubations with rat liver S9 in vitro. The incubation time and S9 protein concentration were optimized to ascertain linearity of glucuronidation with time and the amount of S9 protein. The incubation was performed with a 200 µL mixture in glass vials, and consisted of (final concentrations) […] Tris buffer (pH 7.4), 0.1 mg/ml pooled rat liver S9, 3 mM UDPGA, 5 mM MgCl2, 0.025 mg/ml alamethicin, and 0–100 µM 3-OH-8-MBaP. No metabolites were formed in control incubations without either rat liver S9 or co-factor UDPGA. The final concentration of substrate vehicle (DMSO) in the incubation mixture was 1% (v/v). The incubation mixtures without substrate were pre-incubated at 37 °C for 1 min. The reaction was initiated by adding substrate to the incubation mixtures that were subsequently incubated at 37 °C for 20 min, after which the reaction was terminated by adding 100 µL ice-cold acetonitrile. The incubation mixture was subsequently centrifuged at 3717g at 4 °C for 5 min. The supernatant was collected for ultra-performance liquid chromatography (UPLC) analysis.
as §2, §3, §4

Series [4] deals with rat liver S9. The series is described as above. Format: in vitro ADME. The procedure: as §5, §2, §3, §4
Series [5] concerns ES-D3 cells (differentiation into contracting cardiomyocytes). The experiment in a line: ES-D3 cell differentiation assay of the mouse embryonic stem cell test (mEST). The format is cell-based. On the procedure: The developmental toxicity of the test compounds was assessed by the inhibitory effect on the differentiation of cells of the ES-D3 cell line into contracting cardiomyocytes. The assay was performed essentially as previously described (Kamelia et al. [2020]). The cells were cultured on the lid of a 96-well plate in 45 hanging drops (volume 20 µL/drop) at a concentration of 37,500 cells/ml. The 96 wells were filled with 250 µL PBS to maintain the humidity. Sterile Eppendorf lids were placed at the corners of the 96-well plate to prevent the hanging drops from contacting the 96-well plate. The plates were sealed with micropore tape and incubated at 37 °C with 5% CO2 in a humidified atmosphere for 72 h. After 72 h, 5 ml exposure medium was prepared for each concentration of each test compound with 0.25% DMSO in a 60 × 15 mm petri dish. The formed embryonic bodies (EBs) in the hanging drops on the lid of the 96-well plate were washed off with exposure medium and collected in the petri dish. The Petri dish was subsequently incubated at 37 °C with 5% CO2 in a humidified atmosphere for 48 h. After 48 h, the EBs were transferred to a 24-well plate filled with 1 ml exposure medium per well. Each well contained 1 EB. The 24-well plates were incubated at 37 °C with 5% CO2 in a humidified atmosphere for 120 h. The number of EBs with contracting cardiomyocytes and the undifferentiated EBs were counted under a microscope. In the solvent (DMSO) control, the presence of more than 21 EBs with contracting cardiomyocytes out of 24 EBs indicates a valid assay. In each experiment, 0.5 µM (0.065 µg/ml) 5-FU was used as a positive control. The result of the differentiation assay is expressed as the fraction of differentiated EBs of the total number of EBs.
The concentration–response data for the test compounds in the mEST were presented in three curves including curves for 1-day cytotoxicity, 5-day cytotoxicity, and 10-day differentiation assays. The obtained curves were fitted using the inhibition equation log (inhibitor) vs response (three parameters) option using GraphPad Prism software 5.0 (California, USA).

Setting [6] is: scaled to whole liver, liver weight 9.1 g.
[7] abbreviates: scaled with 125 mg S9 protein/g liver.

Turning to `Cc1ccc2c(c1)cc1ccc3c(O)ccc4ccc2c1c43` [3-OH-8-MBaP, 3-Hydroxy-8-methyl-benzo[a]pyrene], in series [1], the Km at 70 min worked out at 26 µM. For the same compound, the Km with rat liver S9 [2] (rat liver S9, PAPS) worked out at 26.1 µM; in the series with rat liver S9 [4] (rat liver S9, UDPGA) it was 15.6 µM. The “Vmax, sulfation of 3-OH-8-MBaP” value with rat liver S9 [2] (rat liver S9, PAPS) was 0.15 nmol/min/mg S9 protein and 0.15^e nmol/min/mg S9 protein. Further, the results for the “Scaled Vmax, sulfation of 3-OH-8-MBaP” value in the series with rat liver S9 [2] (setting [6]) and in the series with rat liver S9 [2] (setting [7]) were 10 µmol/h/liver and 1.16 µmol/h/g liver, respectively. In addition, in series [3], the Km at 20 min amounted to 16 µM. In addition, the “Vmax, glucuronidation of 3-OH-8-MBaP” value with rat liver S9 [4] (rat liver S9, UDPGA) is 6.92 nmol/min/mg S9 protein and 6.92^e nmol/min/mg S9 protein. Further, the “Scaled Vmax, glucuronidation of 3-OH-8-MBaP” value in the series with rat liver S9 [4] (setting [6]) came to 470 µmol/h/liver; in the series with rat liver S9 [4] (setting [7]) it was 51.9 µmol/h/g liver. The IC50 in series [5] (Mus musculus, Cardiomyocyte, 240 h, read-out: IC50 for inhibition of differentiation of ES-D3 cells into beating cardiomyocytes) was determined as 1400 nM. In addition, the “Fold difference between IC50 of 3-OH-8-MBaP and of 3-OHBaP (3-OH-8-MBaP lower)” value in series [5] (differentiation assay of the mEST) came to 1.1 fold.
